Reference: ChEMBL document CHEMBL3244194, “beta-Adrenoceptor blocking activity of halogenated thienylethanolamine derivatives” (J Med Chem, 1977)
Activity calls are given as the source filed them. The rule behind the calls is not given here.

Legend:
Rattus norvegicus [1] = experiment: In vivo inhibition of beta-adrenoceptor in Wistar rat assessed as inhibition of isoproterenol-induced tachycardia at 4 mg/kg, iv relative to control; type: functional
[2] = Acute toxicity in iv dosed mouse; conditions: in vivo
Cavia porcellus [3] = experiment: In vivo inhibition of beta-adrenoceptor in histamine-treated guinea pig assessed as inhibition of isoproterenol-induced bronchodilator effect at 0.1 mg/kg, iv administered 3 mins prior to histamine/isoproterenol challenge relative to control; type: functional
Felis catus [4] = experiment: In vivo inhibition of beta-adrenoceptor in cat assessed as inhibition of isoproterenol-induced tachycardia at 1 mg/kg, iv relative to control; type: functional
Felis catus [5] = experiment: In vivo inhibition of beta-adrenoceptor in cat assessed as inhibition of isoproterenol-induced tachycardia at 0.1 mg/kg, iv relative to control; type: functional
Rattus norvegicus [6] = experiment: In vivo inhibition of beta-adrenoceptor in Wistar rat assessed as decrease in heart rate at 4 mg/kg, iv relative to control; type: functional
Felis catus [7] = experiment: In vivo inhibition of beta-adrenoceptor in cat assessed as inhibition of isoproterenol-induced hypotension at 0.1 mg/kg, iv relative to control; type: functional
Felis catus [8] = experiment: In vivo inhibition of beta-adrenoceptor in cat assessed as inhibition of isoproterenol-induced hypotension at 1 mg/kg, iv relative to control; type: functional
Mus musculus [9] = experiment: Local anesthetic activity in ICR Swiss mouse assessed as inhibition of pain reflex response at 0.5%, id relative to control; type: functional
Mus musculus [10] = experiment: Local anesthetic activity in ICR Swiss mouse assessed as inhibition of pain reflex response at 1%, id relative to control; type: functional, organism-based
Felis catus [11] = experiment: In vivo inhibition of beta-adrenoceptor in cat assessed as inhibition of isoproterenol-induced tachycardia at 0.05 mg/kg, iv relative to control; type: functional
Cavia porcellus [12] = experiment: In vivo inhibition of beta-adrenoceptor in histamine-treated guinea pig assessed as inhibition of isoproterenol-induced bronchodilator effect at 0.01 mg/kg, iv administered 3 mins prior to histamine/isoproterenol challenge relative to control; type: functional, organism-based; parameters: dose 0.01 mg/kg

SMILES | inhibition in vivo at 4 mg/kg (Rattus norvegicus [1]) | LD50 [2] | inhibition in vivo at 0.1 mg/kg (Cavia porcellus [3]) | inhibition in vivo at 1 mg/kg (Felis catus [4]) | inhibition in vivo at 0.1 mg/kg (Felis catus [5]) | inhibition in vivo at 4 mg/kg (Rattus norvegicus [6]) | inhibition in vivo at 0.1 mg/kg (Felis catus [7]) | inhibition in vivo at 1 mg/kg (Felis catus [8]) | inhibition (INH) (Mus musculus [9]) | local anesthetic activity (active/inactive) (Mus musculus [10]) | inhibition in vivo at 0.05 mg/kg (Felis catus [11]) | inhibition (Cavia porcellus [12])
CC(C)(C)NCC(O)c1cc(Br)cs1 (racemic) | 50% | 35 mg/kg | 25% | 67% | 33% | 17% | 0% | 50% | – | – | – | –
CC(C)(C)NCC(O)c1sc(Cl)c(Cl)c1Cl (racemic) | 89% | 40 mg/kg | 100% | 98% | 69% | 26% | 87% | 100% | 52% | Active | – | –
CC(C)(C)NCC(O)c1sc(Br)c(Br)c1Br (racemic) | 90% | 32 mg/kg | – | 100% | 72.5% | 12% | 77.5% | 100% | – | – | – | –
CC(C)(C)NCC(O)c1sc(Br)cc1Br (racemic) | 78% | 42 mg/kg | – | 88% | 50% | 17% | 45% | 89% | 82% | Active | – | –
CC(C)NCC(O)c1sc(Cl)cc1Cl (racemic) | 70% | 35 mg/kg | – | – | – | 28% | – | – | – | – | – | –
CC(C)NCC(O)c1sc(Br)c(Br)c1Br (racemic) | 75% | 35 mg/kg | – | 95% | 50% | 10% | 65% | 88% | 40% | Active | – | –
CC(C)(C)NCC(O)c1cc(Br)c(Br)s1 (racemic) | 92% | 38 mg/kg | 100% | 100% | 87.5% | 18% | 58% | 95% | 100% | Active | 61% | –
CC(C)NCC(O)c1cc(Br)c(Br)s1.Cl (racemic) | 100% | 45 mg/kg | 40% | 100% | 92.5% | 25% | 75% | 100% | 72.5% | Active | 78% | inactive
CC(C)(C)NCC(O)c1ccc(Br)s1 (racemic) | 55.5% | 27 mg/kg | – | – | – | 8% | – | – | – | – | – | –
CC(C)NCC(O)c1ccc(Br)s1.Cl (racemic) | 87% | 45 mg/kg | – | 82% | 67.5% | 11% | 50% | 72% | 52% | Active | – | –
CC(C)NCC(O)c1sc(Br)cc1Br (racemic) | 77.5% | 35 mg/kg | – | – | – | 14% | – | – | – | – | – | –
CC(C)NCC(O)c1sccc1Br (racemic) | 0% | 35 mg/kg | – | – | – | 0% | – | – | – | – | – | –
CC(C)(C)NCC(O)c1sc(Cl)cc1Cl (racemic) | 75% | 30 mg/kg | – | 74% | 65% | 32% | 55% | 65% | – | – | – | –
CC(C)NCC(O)c1cc(Br)cs1 (racemic) | 89.5% | 42 mg/kg | – | 90% | 70% | 11% | 53% | 82% | – | – | – | –
CC(C)NCC(O)c1sc(Cl)c(Cl)c1Cl (racemic) | 90% | 35 mg/kg | – | 100% | 58% | 20% | 52% | 85% | – | – | – | –
CC(C)NCC(O)c1scc(Br)c1Br.Cl (racemic) | 92% | 27 mg/kg | – | – | – | 10% | – | – | – | – | – | –
CC(C)(C)NCC(O)c1cc(Cl)cs1 (racemic) | 53% | 38 mg/kg | – | – | – | 6% | – | – | – | – | – | –
CC(C)NCC(O)c1cc(Cl)cs1 (racemic) | 86% | 35 mg/kg | – | 90% | 62% | 8% | 57% | 75% | – | – | – | –
CC(C)(C)NCC(O)c1sccc1Br (racemic) | 12.5% | 25 mg/kg | – | – | – | 10% | – | – | – | – | – | –
CC(C)(C)NCC(O)c1scc(Br)c1Br (racemic) | 95% | 28 mg/kg | 100% | 92% | 53% | 36% | 64% | 97% | 75% | Active | – | –
CC(C)NCC(O)COc1cccc2ccccc12 (stereo not given) [PROPRANOLOL] | 95% | – | 100% | 100% | 87% | 32% | 85% | 100% | 93% | Active | – | Active
CC(C)NCC(O)c1sccc1Cl (racemic) | 0% | 38 mg/kg | – | – | – | 0% | – | – | – | – | – | –
CC(C)(C)NCC(O)c1sccc1Cl (racemic) | 0% | 25 mg/kg | – | – | – | 0% | – | – | – | – | – | –
